US5739111A, “Modulating body/cranial hair growth with derivatives of the α-type melanocyte-stimulating hormone” (Societe L'Oreal S.A., priority 1995, dated 1998)
Where a SMILES comes first, the peptide text is derived from it.

Tested on: hair follicles
Assay: lengthening and survival of hair follicles maintained in vitro
Assay type: cell-based
Parameters: Mean lengthening: unit not given here
Protocol: Viable in vitro hair follicles were prepared according to the technique described in French Patent Application No. 95-08465, filed July 12, 1995 and assigned to the assignee hereof.
From a scalp biopsy, a rather fine strip of scalp was isolated using a scalpel. The adipose tissue surrounding the follicles was removed with microforceps while avoiding damage to the hair bulb. The follicles were cut out with a scalpel under a microscope in order to separate them from their epidermal and dermal surroundings.
The follicles were then cultured in the wells of Costar-type 24-well plates, at the rate of one follicle per well. Each well contained 0.5 ml of Williams' medium E, to which had been added penicillin and Streptomycin to a final concentration of 50 IU/ml, glutamine to 2 mM, bovine insulin to 0.01 mg/ml and hydrocortisone to 0.04 mg/ml.
The follicles were then measured using a microscope equipped with a micrometric eyepiece.
After 24 hours, the follicles were again measured and those which had lengthened by less than 0.3 divisions of the micrometer, corresponding to 0.16 mm, were discarded.
The five (5) following culturing conditions were tested:
Condition A: Complete Williams' medium E, without peptide.
Condition B: Complete Williams' medium E+10 mM Ac-LPV-NH2.
Condition C: Complete Williams' medium E+1 mM Ac-LPV-N2.
Condition D: Complete Williams' medium E+0.1 mM Ac-LPV-NH2.

[1] = summary in words, versus medium without peptide

Structure (SMILES): CC(=O)N[C@@H](CCCCN)C(=O)N1CCC[C@H]1C(=O)N[C@H](C(N)=O)C(C)C [Acetyl-Lys-Pro-Val-NH2] (Ac-Lys-Pro-Val-NH2)
- Mean lengthening (1 mM (Conditions C, E) in complete Williams' medium E, day 0): 0.00
- % Survival (1 mM (Conditions C, E), day 0): 100%
- % Survival (1 mM (Conditions C, E), day 1): 100%
- Mean lengthening (1 mM (Conditions C, E), day 1): 0.38
- % Survival (1 mM (Conditions C, E), day 4): 100%
- Mean lengthening (1 mM (Conditions C, E), day 4): 1.05
- % Survival (1 mM (Conditions C, E), day 5): 100%
- Mean lengthening (1 mM (Conditions C, E), day 5): 1.21
- % Survival (1 mM (Conditions C, E), day 6): 100%
- Mean lengthening (1 mM (Conditions C, E), day 6): 1.28
- % Survival (1 mM (Conditions C, E), day 7): 91%
- Mean lengthening (1 mM (Conditions C, E), day 7): 1.42
- % Survival (1 mM (Conditions C, E), day 8): 55%
- Mean lengthening (1 mM (Conditions C, E), day 8): 1.39
- % Survival (1 mM (Conditions C, E), day 11): 36%
- Mean lengthening (1 mM (Conditions C, E), day 11): 1.70
- Mean lengthening (Condition B, 10 mM in complete Williams' medium E, day 0): 0.00
- % Survival (Condition B, 10 mM, day 0): 100%
- % Survival (Condition B, 10 mM, day 1): 100%
- Mean lengthening (Condition B, 10 mM, day 1): 0.38
- % Survival (Condition B, 10 mM, day 4): 100%
- Mean lengthening (Condition B, 10 mM, day 4): 1.11
- % Survival (Condition B, 10 mM, day 5): 100%
- Mean lengthening (Condition B, 10 mM, day 5): 1.33
- % Survival (Condition B, 10 mM, day 6): 100%
- Mean lengthening (Condition B, 10 mM, day 6): 1.43
- % Survival (Condition B, 10 mM, day 7): 100%
- Mean lengthening (Condition B, 10 mM, day 7): 1.54
- % Survival (Condition B, 10 mM, day 8): 92%
- Mean lengthening (Condition B, 10 mM, day 8): 1.74
- % Survival (Condition B, 10 mM, day 11): 83%
- Mean lengthening (Condition B, 10 mM, day 11): 1.96
- % Survival (Condition B, 10 mM, day 12): 42%
- Mean lengthening (Condition B, 10 mM, day 12): 2.40
- Mean lengthening (Condition D, 0.1 mM in complete Williams' medium E, day 0): 0.00
- % Survival (Condition D, 0.1 mM, day 0): 100%
- % Survival (Condition D, 0.1 mM, day 1): 100%
- Mean lengthening (Condition D, 0.1 mM, day 1): 0.37
- % Survival (Condition D, 0.1 mM, day 4): 100%
- Mean lengthening (Condition D, 0.1 mM, day 4): 1.10
- % Survival (Condition D, 0.1 mM, day 5): 100%
- Mean lengthening (Condition D, 0.1 mM, day 5): 1.22
- % Survival (Condition D, 0.1 mM, day 6): 100%
- Mean lengthening (Condition D, 0.1 mM, day 6): 1.28
- % Survival (Condition D, 0.1 mM, day 7): 83%
- Mean lengthening (Condition D, 0.1 mM, day 7): 1.42
- % Survival (Condition D, 0.1 mM, day 8): 50%
- Mean lengthening (Condition D, 0.1 mM, day 8): 1.58
- % Survival (Condition D, 0.1 mM, day 11): 42%
- Mean lengthening (Condition D, 0.1 mM, day 11): 2.08
- % Survival (Condition D, 0.1 mM, day 12): 17%
- Mean lengthening (Condition D, 0.1 mM, day 12): 2.11
- effect on lengthening of the cultured hair follicles [1]: promoted the lengthening
- effect on survival time of the cultured hair follicles [1]: increased their survival time
